Reference: patent US20150119267A1, “INHIBITION OF COLONY STIMULATING FACTOR-1 RECEPTOR SIGNALING FOR THE TREATMENT OF BRAIN CANCER” (SLOAN-KETTERING INSTITUTE FOR CANCER RESEARCH, priority 2012, published 2015)
Entries after “also recorded” stand apart in the source; their conditions may differ.

Key:
[1] = BLZ945 pharmacokinetics, blood-brain barrier; format: in vivo, mouse; conditions: single dose 200 mg/kg oral gavage
Procedure: The CSF-1R inhibitor was obtained from the Novartis Institutes for Biomedical Research (Emeryville, Calif.). The drug was formulated in 20% captisol at a concentration of 12.5 mg/ml. The vehicle control, 20% captisol, was processed in the same manner. […] To determine if the drug was able to cross the blood-brain barrier, tumor-bearing mice were treated with a single dose of the CSF-1R inhibitor and sacrificed at different time points post-treatment. Plasma, and the left (contralateral) and right (tumor-bearing) hemispheres of the brain were snap frozen in liquid nitrogen for subsequent analysis of CSF-1R inhibitor concentrations in the tissue. For long-term survival studies, dosing begun at 17 days/2.5 weeks post-injection of RCAS-PDGF-B-HA. For the fixed time-point studies, mice underwent MRI scans at 4-5 weeks post-injection of RCAS-PDGF-B-HA, as previously described (5). To determine tumor volume, regions of interest (ROI) were circumscribed on T2 weighted images and their corresponding area in mm^2 was multiplied by the slice height of 0.7 mm. The total tumor volume is the sum of the ROI volume in each slice, and the volume for the first and last slice in which the tumor appears is halved to approximate the volume of a trapezoid. When tumor volume was in the range of 4.5-40 mm^3, animals were randomly assigned to treatment groups. […]

[2] = tested on: U-87 MG glioma cell line; assay: MTT assay, U-87 MG; format: cell-based, human; conditions: concentrations up to 6700 nM
Procedure: (§1) U-87 MG (HTB-14) glioma and CRL-2467 microglia cell lines were purchased from ATCC. The U-87 MG cell line was cultured in DMEM+10% FBS. The CRL-2467 cell line was cultured in DMEM+10% FBS with 30 ng/ml recombinant mouse CSF-1.
(§2) Cell growth rate was determined using the MTT cell proliferation kit (Roche). […] Media was changed every 48 hours. BMDM and CRL-2467 cells were supplemented with 10 ng/ml and 30 ng/ml recombinant mouse CSF-1 respectively unless otherwise indicated. Ten μl of MTT labeling reagent was added to each well and then incubated for 4 hours at 37° C., followed by the addition of 100 μl MTT solubilization reagent overnight. The mixture was gently resuspended and absorbance was measured at 595 nm and 750 nm on a SPECTRAMAX 340 pc plate reader (Molecular Devices).

[3] = tested on: secondary neurospheres from PDG tumors; assay: Secondary neurosphere formation assay; format: cell-based, mouse; conditions: concentrations up to 6700 nM
Procedure: (§3) For neurosphere formation the cell pellet was resuspended in neurosphere media consisting of mouse NSC Basal Media, NSC proliferation supplements, 10 ng/ml EGF, 20 ng/ml basic-FGF and 1 mg/ml Heparin (Stem Cell Technologies). Fresh media was added every 72 hours for 2 weeks. Primary neurospheres were collected, mechanically disaggregated to a single cell suspension and propagated by serial passaging. To generate glioma cell lines, secondary neurospheres were dissociated to single cell suspensions and cultivated in DMEM+10% FBS as a monolayer (10). Multiple glioma cell lines were derived from independent mice, denoted GBM1-4 herein. Glioma cells were infected with a pBabe-H2B-mCherry construct as described previously (11).
Primary neurospheres were disaggregated to a single cell suspension and 5×10^3 cells were plated in a 6 well plate in neurosphere media in the presence of the CSF-1R inhibitor or DMSO as vehicle. Media was changed every 48 hours. Secondary neurosphere formation was assayed by counting the number of neurospheres obtained after 2 weeks.

[4] = tested on: PDG tumor cell lines; assay: MTT assay, PDG tumor cell lines; format: cell-based, mouse; conditions: concentrations up to 6700 nM
Procedure: as §3, §2

[5] = tested on: PDGF-driven gliomas (PDG); assay: Long-term survival trial in PDG mice; format: in vivo
[6] = tested on: CRL-2467 microglia cell line; assay: MTT assay, CRL-2467 microglia; format: cell-based
Procedure: as §1, §2

[7] = tested on: glioma cells co-cultured with BMDMs; assay: Glioma cell / BMDM co-culture cell cycle analysis; format: cell-based, mouse; conditions: 670 nM BLZ945, 48 hours
Procedure: Media that had been conditioned by glioma tumor cell lines grown in serum free media for 24 hours was passed through 0.22 μm filters to remove cellular debris, and is referred to herein as glioma cell-conditioned media (GCM). GCM was used to stimulate differentiated C57BL/6 WT or β-actin-GFP^+ BMDMs. Control macrophages received fresh media containing 10% FBS and 10 ng/ml recombinant mouse CSF-1.
Following collection of trypsinized co-cultured cells, wells were rinsed in additional media and this volume was collected to ensure harvesting of all macrophages, which adhered tightly to cell culture dishes. Samples were then washed once with FACS buffer, followed by incubation for 10 minutes at room temperature in permeabilizing buffer (10 mM PIPES, 0.1 M NaCl, 2 mM MgCl2, 0.1% Triton X-100, pH 6.8) containing 0.1 mg DAPI (Invitrogen). After acquisition on an LSR II flow cytometer (BD) using a UV laser (350-360 nm), cell cycle status of glioma tumor cells was analyzed using the Flow Jo Dean-Jett-Fox program for cell cycle analysis.

CNC(=O)c1cc(Oc2ccc3nc(N[C@@H]4CCCC[C@H]4O)sc3c2)ccn1 [BLZ945]
blood-brain barrier crossing [1]: able to effectively cross the blood-brain barrier
concentration in contralateral non-tumor bearing hemisphere versus tumor ([1]; all time points tested): comparable to the level achieved in the tumor
U-87 MG human glioma cell proliferation [2]: no effect
tumor neurosphere formation (number or size of secondary neurospheres) [3]: no effect; also recorded: does not affect the number or size
proliferation of PDG tumor cell lines [4]: no effect
tolerability ([5]; 200 mg/kg once daily, up to 26 weeks): well-tolerated
asymptomatic mice with no detectable lesions at end stage ([5]; 26-week endpoint): 55.6%
cohort still alive at trial endpoint (symptom-free survival) ([5]; 26 weeks post-injection, 200 mg/kg once daily from 2.5 weeks): 64.3%
tumor grade ([5]; versus vehicle, long-term survival trial): significantly less malignant tumors
survival / viability of microglia cell line [6]: reduced viability; also recorded: blocks survival
increase in tumor cell cycle entry with GCM-preconditioned BMDMs [7]: blocked
